Measured values published in patent publication US10420745B2 (priority 2015, dated 2019).

tested on: Clostridia perfringens; format: cell-based; conditions: minimum inhibitory concentration towards Clostridia perfringens, in vitro

In order of rising MIC:
1. CCCCC(=O)OCC(O)CO (stereo not shown) [Glyceryl monovalerate]  15 mmol
2. CCCCC(=O)O [Valeric acid]  15 mmol
3. CCCC(=O)O [Butyric acid]  62 mmol
4. CCC(=O)O [Propionic acid]  62 mmol
5. CCCC(=O)OCC(O)CO (stereo not shown) [Glyceryl monobutyrate]  125 mmol
6. CCC(=O)OCC(O)CO (stereo not shown) [Glyceryl monopropionate]  250 mmol

tested on: Clostridium perfringens-induced necrotic enteritis; format: in vivo, broiler chicken; conditions: Ross 308 broilers, lower concentration in feed (2.5/2/1.5 kg/ton weeks 1/2/3), adsorbed on silica carrier, C. perfringens challenge days 17-20, scoring day 21; positive control 71%

`CCCCC(=O)OCC(O)CO` (stereo not shown) [Glyceryl monovalerate] was tested, and the “animals within the group diagnosed as necrotic enteritis positive (macroscopic lesion score ≥2)” value was 27%.
